Data on one molecule can be found in patent US20060094676A1, “Compositions and methods for treating cancer using compositions comprising an inhibitor of endothelin receptor activity” (priority 2004, published 2006).

Holding throughout (type): cell-based, human
The subject of data set [1] is Me 190/DA (Cut-met) melanoma cells. As to the kind of experiment: MTS assay of cell viability after BQ788. To be noted: incubation with BQ788 for seven days. As for the experimental part:
(§1) Cells were cultured on a matrigel matrix that was histologically examined after two weeks (A-F). While the primary melanoma cells remained on top of the gel only (A and B), a fraction of the Cut-met cells invaded the gel (C and D) and the LN-met cells invaded the matrix extensively (E and F). Cell lysates of the three lines were subjected to western blot analysis using an anti-ETRB Ab (G) and an anti-tubulin Ab (H). Untreated, control (vehicle treated), and BQ788 treated cells were subjected to MTS assay to quantify any reduction in cell number. The mean values were calculated and plotted (I) as the percentage of the vehicle treated value+/− SEM.
(§2) Human melanoma cell lines Me191-1/GG (Primary), Me 190/DA (Cut-met), Me 275/EP (LN-met) were obtained from the Ludwig Institute (Epalinges, Switzerland) and SK-MEL-28 was obtained from the American Tissue Culture Collection (ATCC). […] After removal of the inserts, MTS solution was added to the well to quantify the cells that migrated through the insert and were attached to the bottom of the well by measuring the OD at 492 nm (Promega). […]
(§3) To address the relationship between the level of progression of human melanoma and responsiveness to BQ788 treatment, 3 cell lines that had been grown in culture for a restricted number of passages were used. […] This effect was quantified using the MTS assay.

In data set [2] the test system is Me 275/EP (LN-met) melanoma cells. As to the kind of experiment: MTS assay of cell viability after BQ788. Conditions: incubation with BQ788 for seven days; LN-met line. The method, then: as §1, §2, §3
For orientation: Tetrazolium dyes change colour on reduction, which living cells bring about.

The subject of the next data set is Cut-met line. As to the kind of experiment: Apoptosis detection ELISA (histone-associated DNA fragments). To be noted: BQ788 5 days. The method, then: (§4) Cells were plated in 24 wells plate in 500 μl medium and cultured for 5 days in the presence of BQ788 or solvent. A cell death detection ELISA PLUS kit (Roche) designed to reveal histone-180 bp DNA fragment complexes of nucleosomes was used to measure apoptosis. Briefly, cells floating in the supernatants and those attached to the dish were incubated in lysis buffer for 30 min. in room temperature (RT). After spinning for 10 min at 200 g, the DNA content of each sample was determined. 20 μl containing equal amounts of DNA were added to each well (3 wells per condition) coated with anti-histone antibody and incubated with additional 80 μl anti-DNA peroxidase immunogen under gentle shaking conditions for 2 h at RT. After washing and revelation with peroxidase substrate the samples OD were measured at 405 nm against substrate containing wells as blank.
(§5) Because BCL-2A1 and PARP are known regulators of apoptosis (Smulson, et al., Roles of poly(ADP-ribosyl)ation and PARP in apoptosis, DNA repair, genomic stability and functions of p53 and E2F-1, Adv. Enzyme Regul., 40:183-215 (2000); Vander Heiden, et al., Bcl-2 proteins: regulators of apoptosis or of mitochondrial homeostasis?, Nat. Cell Biol., 1:E209-E216, (1999)), we used an apoptosis detection ELISA that detects histone-associated DNA fragments to measure apoptotic cell death in the different cell lines treated with BQ788.

A further data set deals with LN-met. The data set is described as above. Conditions: BQ788 5 days. The method, then:
as §4, §5

The test system of a further data set is SK-MEL-28. Described as above. To be noted: BQ788 5 days. The method, then:
as §4, §5

The test system of another data set is primary melanoma cells. The data set is described as above. To be noted: BQ788 5 days. As for the experimental part:
as §4, §5

Take `CCCC[C@@H](NC(=O)[C@@H](Cc1cn(C(=O)OC)c2ccccc12)NC(=O)[C@H](CC(C)(C)C)NC(=O)N1[C@H](C)CCC[C@@H]1C)C(=O)O` [BQ788, N-cis-2,6-dimethylpiperidinocarbonyl-L-γ-methylleucyl-D-1-methoxycarbonyltrptophanyl-D-norleucine]: the figures for the reduction of viability in data set [1] and in data set [2] were 45% and 96%, respectively. Further, the apoptosis level entry is reported as “slight increase” in the data set with Cut-met line, “intermediate level” in the data set on LN-met, “highest induction” in the data set with SK-MEL-28 and “did not display apoptosis” in the data set with primary melanoma cells.
